Source: patent publication US20220089600A1, “TGFß INHIBITOR AND PRODRUGS” (FUNDACIÓ INSTITUT DE RECERCA BIOMÈDICA (IRB BARCELONA), priority 2018, published 2022)

Tests used:
human ALK5 = target: T1, human ALK5 (Homo sapiens, UniProt P36897); assay: KinaseProfiler enzymatic activity inhibition; assay type: biochemical; settings: KinaseProfiler, 9-point curve, top 10 μM; read-out: Enzyme activity inhibition IC50 (nM) ALK5 (TGFBR1)
T1 construct: purchased Eurofins (Kinase Profiler service)
T1 sequence (P36897 34-503): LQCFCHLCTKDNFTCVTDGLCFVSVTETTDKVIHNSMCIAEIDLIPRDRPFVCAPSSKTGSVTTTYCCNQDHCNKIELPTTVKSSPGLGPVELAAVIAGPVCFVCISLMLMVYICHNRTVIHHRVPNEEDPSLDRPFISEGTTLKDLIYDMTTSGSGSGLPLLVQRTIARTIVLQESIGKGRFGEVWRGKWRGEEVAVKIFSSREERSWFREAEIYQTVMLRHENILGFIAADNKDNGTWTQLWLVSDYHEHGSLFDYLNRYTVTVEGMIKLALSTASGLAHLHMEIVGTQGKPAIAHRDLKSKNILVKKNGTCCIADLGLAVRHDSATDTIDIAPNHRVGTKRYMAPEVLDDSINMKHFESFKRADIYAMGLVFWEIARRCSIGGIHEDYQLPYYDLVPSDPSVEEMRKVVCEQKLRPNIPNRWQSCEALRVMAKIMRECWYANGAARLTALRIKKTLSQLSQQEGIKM
Protocol: Briefly, human ALK5 was incubated with 8 mM MOPS pH 7.0, 0.2 mM EDTA, 1 mM MnCl2, 2 mg/mL casein, 10 mM MgAcetate and [γ-33P-ATP] (specific activity approx. 500 cpm/pmol, concentration as required). The reaction was initiated by the addition of the MgATP mix. After incubation for 40 minutes at room temperature, the reaction was stopped by the addition of a 3% phosphoric acid solution. 10 μL of the reaction was then spotted onto a P30 filtermat and washed three times for 5 minutes in 75 mM phosphoric acid and once in methanol prior to drying and scintillation counting.
Compounds were tested using a 9-point curve with half-Log serial dilutions. The top concentration tested was 10 μM. Test compounds were prepared in 100% DMSO.

[1] = target: T2, Cre-ER^T2 fusion protein in MEFs (Homo sapiens, UniProt P03372, G400V/L544A/M543A/V595A); assay: Co-culture MEF recombination assay (mTmG reporter, FACS); assay type: cell-based, mouse
T2 construct: Cre recombinase (fusion partner); host or cells: mouse embryonic fibroblasts from UbC-Cre-ER^T2; mTmG transgenic mice; the other entry of the earlier key: cre (P06956, Recombinase cre)
T2 sequence (P03372 with tags, fused parts or gaps G400V/M543A/L544A/V595A): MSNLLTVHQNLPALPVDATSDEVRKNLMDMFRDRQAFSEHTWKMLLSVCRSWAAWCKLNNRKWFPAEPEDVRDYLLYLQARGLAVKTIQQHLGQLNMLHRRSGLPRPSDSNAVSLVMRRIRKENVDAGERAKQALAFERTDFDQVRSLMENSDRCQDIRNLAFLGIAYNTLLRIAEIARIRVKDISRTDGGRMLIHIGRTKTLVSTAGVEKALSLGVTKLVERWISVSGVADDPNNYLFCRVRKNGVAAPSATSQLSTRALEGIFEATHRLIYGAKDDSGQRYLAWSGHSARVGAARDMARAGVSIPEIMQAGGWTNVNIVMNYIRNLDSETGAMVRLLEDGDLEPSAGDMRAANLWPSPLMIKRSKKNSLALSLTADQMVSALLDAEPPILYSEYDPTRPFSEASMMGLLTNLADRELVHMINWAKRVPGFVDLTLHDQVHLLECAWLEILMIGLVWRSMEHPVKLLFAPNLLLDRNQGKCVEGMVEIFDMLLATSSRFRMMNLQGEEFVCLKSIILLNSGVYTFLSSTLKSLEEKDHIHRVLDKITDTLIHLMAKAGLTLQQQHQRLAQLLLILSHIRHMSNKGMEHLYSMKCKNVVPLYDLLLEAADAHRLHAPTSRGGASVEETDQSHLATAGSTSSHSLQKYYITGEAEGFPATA
Text: The mouse model carries recombination reporter mTmG (JAX stock: 007676). This system expresses the membrane bound tdTomato (tandem dimer tomato; mT stands for membrane Tomato), which is a red fluorescent protein. Upon recombination with an activated Cre enzyme, the coding sequence for mT as well as a stop codon, being between loxP sites, is excised. […] Effectively this means that in the presence of a Cre enzyme, or in the presence of a 4-OHT activated Cre-ER^T2 fusion protein, the cells stop their production of tdTomato and proceed to express the EGFP; this genetic switch can be efficiently quantified by flow cytometry analysis. The mouse strain expressing mTmG was then crossed to a mouse carrying a Cre-ER^T2 fusion protein in all cells (UbC-Cre-ER^T2; Jax Stock: 008085). From the dual transgenic mouse, as well as from the reporter strain without Cre-ER^T2, MEFs were harvested from 14-day-old embryos. Briefly, pregnant females were sacrificed 14 days after plug formation, uteri were removed, and embryos were dissected: heads and fetal livers were discarded. The rest was minced and digested with trypsin and grown in 10-cm plates with aforementioned supplemented DMEM.
MEF recombination: MTO129, transduced with pLenti PGK-LigF (puro) or with an equivalent empty vector was trypsinized and single cells added onto UbC-Cre-ER^T2; mTmG (or control mTmG-only) MEFs grown in 12-well plates. The next day, either Z-4-OHT or the prodrug of formula VII was added in concentrations ranging from 1000 to 1 nM. Two days later, cells were trypsinized and analyzed by flow cytometry for TdTomato/EGFP fluorescence (Gallios, Beckman Coulter). Fluorescence was analyzed on viable cells in 2 dimensions and scored as percentages in the 4 quadrants. EGFP positive quadrants (Q2 and Q4, with or without TdTomato) were considered recombined and the fraction of the total was calculated. Data are the average (+SD) from two independent experiments.

Cre-ER^T2 fusion protein = target: T3, Cre-ER^T2 fusion protein (Homo sapiens, UniProt P03372, G400V/L544A/M543A/V595A); assay: In vivo gene recombination in UbCre-ER^T2; mTmG mice (EGFP immunohistochemistry); design: species or system mouse
T3 construct: Cre recombinase (fusion partner); tissue Jax Stock: 008085; host or cells: liver of transgenic UbCre-ER^T2; mTmG mice (transgene product); the other entry of the earlier key: cre (P06956, Recombinase cre)
Protocol: Using the UbCre-ER^T2; mTmG mice described in example 6, we treated these animals with the prodrug of formula VII at 1 or 5 μmol (approximately 0.6 or 3 mg, respectively) or with a vehicle control (oil). Five days after treatment, mice were sacrificed, and the liver was fixed overnight in 10% phosphate-buffered formalin (sigma) and embedded in paraffin, similar to the description of example 3 (FIG. 1).

LigF = target: T4, LigF (Sphingobium sp., UniProt P30347); assay: In vitro LigF cleavage of prodrug, HPLC-MS/MS; assay type: biochemical, Sphingobium sp. strain SYK-6; settings: 37° C.
T4 construct: made in house; host or cells: E. coli BL21 (DE3) Rosetta lysS
T4 sequence (P30347 1-257): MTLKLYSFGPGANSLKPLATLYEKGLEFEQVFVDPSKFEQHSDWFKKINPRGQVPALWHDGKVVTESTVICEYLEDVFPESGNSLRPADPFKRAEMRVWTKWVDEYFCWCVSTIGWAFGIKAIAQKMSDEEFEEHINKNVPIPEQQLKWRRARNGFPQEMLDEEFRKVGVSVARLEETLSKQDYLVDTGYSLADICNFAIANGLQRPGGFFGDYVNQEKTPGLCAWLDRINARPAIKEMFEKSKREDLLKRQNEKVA
Protocol: Similar to the in vitro assay in 5.2., the compound of formula VII was diluted from a 30 mM stock solution in DMSO to 50 μM in 20 mM Tris-HCl (pH 7.5), 1 mM glutathione and 15 μg/ml LigF was added. However, the reaction mixture was incubated at 37° C. and the read-out was different: using HPLC-MS/MS. Reaction samples, as well as a control sample without enzyme and Z-4-OHT (4-hydroxytamoxifen) as a standard were diluted 2:3 in MeOH and 2 μl was injected onto a BioBasic C18 column (5 μm, 2.1×150 mm, Thermo; using a Thermo EC Finnigan Mod Micro AS autosamples and Thermo EC Quarternary pump, Finnigan Mod. Surveyor MS chromatograph) with a water-MeOH gradient (60-90% MeOH in 30 min; 90-100% in 5 min; 100 μl/min flow rate). LC-MS coupling was performed with the Advion Triversa Nanomate (Advion BioSciences, Ithaca, N.Y., USA) as the nanoESI source performing nanoelectrospray through chip technology. The Nanomate was attached to an LTQ-FT Ultra mass spectrometer and operated at a spray voltage of 1.7 kV and a delivery pressure of 0.5 psi in positive mode. In a LTQ-FT Ultra (Thermo Scientif) mass spectrometer, analyses were performed using 40V capillary voltage and 120V tube lens voltage. MS/MS was operated in a data-dependent acquisition (DDA) mode and in selected reaction monitoring (SRM) mode. Survey MS scans were acquired in the FT with the resolution (defined at 400 m/z) set to 100,000. Up to six of the most intense ions per scan were fragmented and detected in the linear ion trap. The ion count target value was 1,000,000 for the survey scan and 50,000 for the MS/MS scan. Target ions already selected for MS/MS were dynamically excluded for 30 s. For SRM, maximum injective was set to 400 ms and 2 microscans average.
Data are represented as XIC (extracted ion chromatogram) peak areas of parallel reaction monitoring (PRM) transitions, using QuanBrowser (Xcalibur software 2.0SR2).

[2] = system: NTCF4-ER^T2 fusion protein in LS174T cells; assay: Co-culture LS174T-NTCF4-ER^T2 gene expression assay; assay type: cell-based; settings: 16h
Protocol: These LS-NE cells were cultured in DMEM supplemented with L-glutamine and 10% fetal bovine serum (Life Technologies) at 37° C. and 5% CO2.
HEK293T cells transduced with pLenti PGK-LigF (puro) or with an equivalent empty vector were co-plated with LS174T-NTCF4-ER^T2 (LS-NE) cells, in a ratio of 1/10 in 6-well plates. Co-cultures were treated with DMSO, 1 μM Z-4-OHT or the prodrug of formula VII at 1 or 10 μM. After 16h, cells were lysed in trizol for RNA extraction (PureLink RNA Mini Kit, Life Technologies) and cDNA preparation (High Capacity cDNA RT kit, Applied Biosysytems). […] Data in FIG. 11 were normalized to the housekeeping gene, and to DMSO controls. Data are the average of technical replicates (+SD) from a single experiment.

MTO129 liver metastases = assay: Mouse liver metastasis initiation/formation assay with MTOs; assay type: in vivo; settings: FIG. 13, 1× dose
Text: Mouse tumor organoids (MTOs) are derived from compound transgenic mice (conditional mutations in Apc, Kras, Trp53 and Tgfbr2, as well as bearing Lgr5-EGFP/CreER^T2) of the C57BL6/J strain and cultured as described in Tauriello et al. 2018 Nature 554(7693): 538-543. doi: 10.1038/nature25492. Organoids are tumor epithelial cells grown in a 3D matrix where they adopt an organotypic architecture, typically as spheroids with a lumen. In this way, cells retain a relatively normal polarity (which means that the outside surface, inside/luminal surface and cell-cell contacts are individually specialized), which is more physiological than in conventional 2D cell culture.
In all experiments described in present invention MTO129 were used (Tauriello et al. Nature. 2018).
In patients, treatment doses were reduced to 80 to 150 mg b.i.d in a regime of 14 days on-14 days off.
MTOs expressing a luciferase reporter were measured by bioluminescence imaging, using retroorbital injection of 50 μl 15 mg/ml D-luciferin potassium salt (Resem BV). Photons per second from the region spanning thorax/abdomen were quantified and normalized to the measure at the day of injection.
Control mice were treated with 150 μl of vehicle.
In the experiment shown in FIG. 13, potency of the indicated compounds to inhibit metastasis formation was assessed. Mice were treatments with indicated compounds started two days after MTO129 transplantation and continued during two weeks. Mice were sacrificed at 4 weeks post transplantation and liver metastases (LiMs) were counted by eye on fixed livers.

[3] = UbC-Cre-ER^T2, mTmG MEFs with LigF-expressing MTO129, 1000 to 1 nM, two days

## Oc1ccc2c(-c3c(-c4ccccn4)nn4c3CCC4)ccnc2c1 [Reference compound 337, 4-(2-pydridin-2-yl-5,6-dihydro-4H-pyrrolo[1,2-b]pyrazol-3-yl)-quinolin-7-ol, reference compound]
Human ALK5
  IC50: 320 nM

## CCC(=C(c1ccc(OCCN(C)C)cc1)c1ccc(OCC(=O)c2ccc(O)c(OC)c2)cc1)c1ccccc1 (racemic) [prodrug of formula VII, 2-(4-(1-(4-(2-(dimethylamino)ethoxy)phenyl)-2-phenylbut-1-en-1-yl)phenoxy)-1-(4-hydroxy-3-methoxyphenyl)ethan-1-one]
[1]; [3]
  gene recombination in MEFs (fraction EGFP positive): very similar to 4-OHT
[1]; without LigF etherase (printed: MEFs lacking UbC-ER^T2)
  gene recombination in MEFs (fraction EGFP positive): only some recombination at the highest dose
Cre-ER^T2 fusion protein; 1 or 5 μmol, five days after treatment
  gene recombination and EGFP expression in liver: dose-dependent activation of gene recombination and EGFP expression
Cre-ER^T2 fusion protein; Example 7 mouse treatment
  gene recombination in peripheral tissues compared to the liver: lower
LigF; 50 μM, 15 μg/ml LigF
  cleavage plateau: 50%
  time to half way to the plateau: 3 h
  time to reach cleavage plateau: approximately 30 hours
LigF; all other components present
  stability in control without LigF: remained intact
[2]; HEK293T-LigF, 10 μM
  transcriptional switch (KRT20 up, ASCL2 down): achieved the same response

## 4-hydroxytamoxifen [4-OHT, reference compound]
[1]; [3]
  gene recombination in MEFs (fraction EGFP positive): dose-dependent gene recombination
[2]; HEK293T negative for LigF, 1 μM
  transcriptional switch (KRT20 up, ASCL2 down): able to induce the transcriptional switch

## Cc1cccc(-c2nn3c(c2-c2ccnc4ccc(OC(=O)N5CCC(N6CCCCC6)CC5)cc24)CCC3)n1 [prodrug of formula IV, 4-(2-(6-methylpyridin-2-yl)-5,6-dihydro-4H-pyrrolo[1,2-b]pyrazol-3-yl)quinolin-6-yl [1,4′-bipiperidine]-1′-carboxylate]
MTO129 liver metastases
  activity in preventing liver metastasis formation, in words: more robustly than galunisertib
Human ALK5
  IC50: 2280 nM

## Cc1cccc(-c2nn3c(c2-c2ccnc4cc(O)ccc24)CCC3)n1 [Reference compound 338, 4-[2-(methyl-pyridin-2-yl) 5,6-dihydro-4H-pyrrolo[1,2-b]pyrazol-3-yl]-quinolin-7-ol, reference compound]
Human ALK5
  IC50: 371 nM

## COc1cc(C(=O)COc2ccc3nccc(-c4c(-c5cccc(C)n5)nn5c4CCC5)c3c2)ccc1O [prodrug of formula III, 1-(4-hydroxy-3-methoxyphenyl)-2-((4-(2-(6-methylpyridin-2-yl)-5,6-dihydro-4H-pyrrolo[1,2-b]pyrazol-3-yl)quinolin-6-yl)oxy)ethan-1-one]
Human ALK5
  IC50: 836 nM
